Reference: patent US20180169135A1, “METHOD FOR PREVENTING TRANSPLANT FAILURE IN A HOST” (Universiteit Maastricht, priority 2015, published 2018)

Target: Histon H3 (Homo sapiens, UniProt P68431)

## heparin [UFH]
  neutralization of the cytotoxic activity of Histon H3: neutralize the cytotoxic activity of Histon H3
